Common to all, as to test: ≥ marks a high value that may be exact or a test limit, other limits are often not marked, values filed in µg/mL are converted to µM
Assay [1] deals with Candida albicans ATCC 90028.
The test system of assay [2] is Enterobacter cloacae HNTCC 53001.
The test system of assay [3] is Enterococcus faecalis ATCC 29212.
Assay [4] concerns Escherichia coli ATCC 25922.
Assay [5] deals with Klebsiella pneumoniae KK3 9904.
The test system of assay [6] is Pseudomonas aeruginosa ATCC 27853.
Assay [7] relates to Staphylococcus aureus NCTC 8325.
Assay [8] has as its system Staphylococcus aureus T7/20.
Assay [9] deals with Staphylococcus epidermidis RP62A.
Assay [10] deals with Candida albicans ATCC 2002.
The subject of assay [11] is Escherichia coli CIB 84492.
For assay [12], the system named is Pseudomonas aeruginosa CMCCB 10104.
The test system of assay [13] is Staphylococcus aureus ATCC 25923.
Assay [14] relates to Staphylococcus aureus CIB 85462.
Assay [15] deals with Bacillus cereus ATCC 11778.
For assay [16], the system named is Bacillus subtilis CCT 2471.
Assay [17] relates to Bacillus thuringiensis.
For assay [18], the system named is Candida albicans ATCC 18804.
Assay [19] has as its system Escherichia coli CCT 1371.
Assay [20] relates to Klebsiella aerogenes ATCC 13048.
For assay [21], the system named is Proteus mirabilis.
Assay [22] deals with Pseudomonas aeruginosa ATCC 15442.
In assay [23] the test system is Salmonella enterica subsp. enterica serovar Typhimurium ATCC 14028.
The subject of assay [24] is Staphylococcus aureus ATCC 25293.
Assay [25] relates to Staphylococcus aureus ATCC 29213.
For assay [26], the system named is Staphylococcus aureus ATCC 6538.
For assay [27], the system named is Staphylococcus saprophyticus.
Assay [28] deals with Bacillus subtilis ATCC 6633.
Assay [29] has as its system Candida albicans ATCC 36232.
The subject of assay [30] is Corynebacterium diphtheriae ATCC 8024.
In assay [31] the test system is Escherichia coli ATCC 2592.
Assay [32] has as its system Micrococcus luteus ATCC 9341.
In assay [33] the test system is Pseudomonas aeruginosa ATCC 9027.
For assay [34], the system named is Shigella flexneri ATCC 203.
The test system of assay [35] is Staphylococcus aureus.
In assay [36] the test system is Staphylococcus epidermidis ATCC 12228.

In brackets after ≈: the same amount, converted by molar mass. Bounds are passed on as bounds.

In the case of `CSCC[C@H](NC(=O)[C@@H](NC(=O)[C@@H](NC(=O)[C@H](CC(C)C)NC(=O)[C@@H]1CCCN1C(=O)[C@H](CC(C)C)NC(=O)[C@@H](N)Cc1ccccc1)C(C)C)[C@@H](C)O)C(=O)N[C@@H](CC(C)C)C(=O)N[C@@H](CC(C)C)C(=O)NCC(=O)N[C@@H](CCCCN)C(=O)N[C@@H](CC(C)C)C(=O)N[C@@H](Cc1ccccc1)C(N)=O` [FLPLVTMLLGKLF], the MIC is ≥ 160 µM in [1]; ≥ 40 µM in assay [2]; 40 µM (≈ 59.6 µg/mL) in [3]; > 160 µM in [4]; ≥ 80 µM in assay [5]; 160 µM (≈ 239 µg/mL) in assay [6]. The MIC in assay [7] is 5 µM (≈ 7.45 µg/mL); in assay [8], 10 µM (≈ 14.9 µg/mL); in assay [9], 10 µM (≈ 14.9 µg/mL).
Consider `CC[C@H](C)[C@H](NC(=O)[C@H](CO)NC(=O)[C@H](CC(C)C)NC(=O)[C@@H](N)Cc1ccccc1)C(=O)N[C@H](C(=O)N[C@@H](C)C(=O)N[C@@H](CCCCN)C(=O)N[C@H](C(=O)N[C@@H](CC(C)C)C(=O)NCC(=O)N[C@@H](CO)C(=O)N[C@@H](CC(C)C)C(=O)N[C@@H](Cc1ccccc1)C(N)=O)C(C)C)[C@@H](C)CC` [FLSIIAKVLGSLF], for which the MIC in assay [1] is ≥ 160 µM; in assay [2] it was ≥ 160 µM; in assay [3] it was 20 µM (≈ 28.1 µg/mL); in assay [4], > 160 µM; in [5], ≥ 160 µM; in assay [6] it was > 160 µM. For the same compound, the MIC came out at 5 µM (≈ 7.03 µg/mL) in assay [7], 10 µM (≈ 14.1 µg/mL) in assay [8] and 5 µM (≈ 7.03 µg/mL) in [9].
For `CC[C@H](C)[C@H](NC(=O)[C@H](CC(C)C)NC(=O)[C@H](CCCCN)NC(=O)[C@H](C)NC(=O)[C@H](C)NC(=O)CNC(=O)[C@H](CCCCN)NC(=O)[C@@H](NC(=O)[C@H](CC(C)C)NC(=O)[C@@H](NC(=O)[C@H](Cc1ccccc1)NC(=O)[C@H](CC(C)C)NC(=O)CN)[C@@H](C)O)[C@@H](C)CC)C(=O)NCC(=O)N[C@@H](CCCCN)C(=O)N[C@H](C(=O)N[C@H](C(=O)N[C@@H](C)C(=O)N[C@@H](CCCCN)C(=O)N[C@@H](CCC(=O)O)C(=O)N[C@@H](C)C(=O)NCC(=O)N[C@@H](CCCCN)C(=O)N[C@H](C(=O)NCC(=O)N[C@@H](CC(C)C)C(=O)N[C@@H](CCC(=O)O)C(=O)N[C@@H](CC(C)C)C(=O)N[C@@H](CCSC)C(=O)N[C@@H](C)C(=O)N[C@H]1CSSC[C@@H](C(=O)O)NC(=O)[C@H](CCC(N)=O)NC(=O)[C@H](CC(N)=O)NC(=O)[C@H]([C@@H](C)O)NC(=O)[C@H]([C@@H](C)CC)NC(=O)[C@H](CCCCN)NC1=O)[C@@H](C)O)C(C)C)[C@@H](C)O` [GLFTLIKGAAKLIGKTVAKEAGKTGLELMACKITNQC], the MIC in [10] is 1.33 µM (≈ 5.1 µg/mL); in assay [1], ≥ 100 µM; in [4], 2.67 µM (≈ 10.2 µg/mL); in assay [11], ≥ 33.5 µM; in [12], 2.67 µM (≈ 10.2 µg/mL); in [13] it was 1.33 µM (≈ 5.1 µg/mL). For the same compound, the figures for the MIC in assay [14] and in assay [7] were 8.37 µM (≈ 32 µg/mL) and ≥ 50 µM, respectively.
As to `CC[C@H](C)[C@H](N)C(=O)N[C@@H](Cc1ccccc1)C(=O)NCC(=O)N[C@@H](C)C(=O)N[C@H](C(=O)N[C@@H](Cc1c[nH]c2ccccc12)C(=O)N[C@@H](CC(N)=O)C(=O)NCC(=O)N[C@H](C(=O)N[C@@H](CCCCN)C(=O)N[C@@H](CO)C(=O)N[C@@H](CC(C)C)C(=O)N[C@@H](Cc1ccccc1)C(=O)O)[C@@H](C)CC)[C@@H](C)CC` [IFGAIWNGIKSLF], the MIC in assay [15] is ≥ 68.2 µM; in [16] it was 6.8 µM (≈ 9.97 µg/mL); in [17], 17.1 µM (≈ 25.1 µg/mL); in [18], 12.5 µM (≈ 18.3 µg/mL); in [19], 3.4 µM (≈ 4.98 µg/mL); in assay [20], ≥ 68.2 µM. In addition, the MIC in [21] is ≥ 150 µM; in [22], ≥ 150 µM; in assay [6], 68.3 µM (≈ 100 µg/mL); in assay [23] it was 68.2 µM (≈ 100 µg/mL); in [24], 0.7 µM (≈ 1.03 µg/mL); in [25], 34.1 µM (≈ 50 µg/mL). Also, the MIC came out at 3.4 µM (≈ 4.98 µg/mL) in assay [26] and 0.7 µM (≈ 1.03 µg/mL) in assay [27].
Turning to `CC(C)C[C@H](NC(=O)[C@H](CS)NC(=O)[C@H](Cc1cnc[nH]1)NC(=O)[C@H](C)NC(=O)[C@H](C)NC(=O)[C@H](CS)NC(=O)[C@H](C)NC(=O)[C@H](C)NC(=O)[C@H](CC(=O)O)NC(=O)[C@@H](N)CC(N)=O)C(=O)N[C@@H](Cc1ccccc1)C(=O)N[C@@H](CCCN=C(N)N)C(=O)NCC(=O)N[C@@H](CCCN=C(N)N)C(=O)N[C@@H](CO)C(=O)NCC(=O)NCC(N)=O` [NDAACAAHCLFRGRSGG], the MIC in [28] was ≥ 58.6 µM; in assay [29], ≥ 58.6 µM; in assay [30], ≥ 58.6 µM; in assay [31], ≥ 58.6 µM; in assay [32], ≥ 58.6 µM; in assay [33] it was > 58.6 µM. Moreover, the MIC was ≥ 58.6 µM in assay [34], > 58.6 µM in assay [26], > 58.6 µM in assay [35] and > 58.6 µM in [36].
On to `CC(C)[C@H](NC(=O)[C@H](CS)NC(=O)[C@@H](NC(=O)[C@H](CCCN=C(N)N)NC(=O)[C@H](CCCCN)NC(=O)CNC(=O)[C@H](CC(N)=O)NC(=O)[C@H](CS)NC(=O)[C@@H](N)Cc1ccc(O)cc1)C(C)C)C(=O)N[C@@H](CS)C(N)=O` [YCNGKRVCVC], for which the MIC in [28] is ≥ 87.4 µM; in assay [29] it was ≥ 87.4 µM; in assay [30], ≥ 87.4 µM; in [31], ≥ 87.4 µM; in assay [32], ≥ 87.4 µM; in [33], > 87.4 µM. Also, the MIC in [34] was ≥ 87.4 µM; in [26], > 87.4 µM; in assay [35], > 87.4 µM; in assay [36], > 87.4 µM.
